{"source": "paper PMC7287882", "about": "“Dual miRNases for Triple Incision of miRNA Target: Design Concept and Catalytic Performance” (Molecules, 2020)", "system": "miR-21", "assay": "Ribonuclease activity assay with DC or ON and RNase H, miR-21", "type": "biochemical", "method": "It is known that DNA-like antisense oligonucleotides after binding to target RNAs form a substrate for intracellular endonuclease RNases H. RNA hydrolysis in RNA-DNA heteroduplex by RNase H1 occurs at a distance of 6–10 nucleotides from the 5′-end of RNA (approximately one turn of the helix). Our design of the Dual conjugates here was carried out in such a way to ensure that their heteroduplexes with the matching miRNA sequences could serve as potential substrates for RNase H. To achieve that, we ensured that the length of the oligonucleotide recognition motifs A and B within the DC was 8–10 nt, which was expected to be sufficient for interaction and cleavage by RNase H (see Figure 1 and Table 1). As indicated above, a few adenine aromatic basis within each recognition motifs A and B were replaced with 2-aminoadenines to enhance the hybridization ability of the DC with miRNA. […] In order to verify this, as well as to evaluate the ability of RNase H to contribute to the miRNA cleavage catalyzed by DC, we studied the kinetics of the target miRNA cleavage performed (1) by the DC alone; (2) by RNase H, when the target miRNA was hybridized with the nonconjugated Dual oligonucleotide (ON); and (3) by both DC and RNase H present in the same reaction mixture. The study was performed against miR-17, miR-155 and miR-21 using a 20-fold excess of DCs or respective oligonucleotides over the matching miRNA (see Table 1 for sequences).\nFigure 6 Cleavage kinetics of 5′-[^32P]-labeled miRNAs by DCs and/or RNase H. (a,d,g). Radioautographs of 18% denaturing PAAG showing the profiles of cleavage of miR-17, miR-155 and miR-21, respectively. Duplexes formed by 5′-[^32P]-miRNA (1 µM) and DC or ON (20 µM) were incubated at 37 °C for 48–72 h. RNase H was taken in the concentration of 5 or 100 u/mL. Lanes Im and T1–imidazole ladder and partial RNA digestion with RNase T1, respectively; control–RNA was incubated in the absence of DC or ON and in the presence of RNase H (100 u/mL); (b,e,h) Time dependency of cleavage of miR-17, miR-155 and miR-21, respectively, by DCs and/or RNase H. Data are presented as mean ± s.e. *—indicates statistically significant difference with p < 0.05; (c,f,i). […]\nThe reaction mixture (10 µL) containing 20 mM Tris-HCl, pH 7.8, 40 mM KCl, 8 mM MgCl2, 1 mM DTT, 0.02 mg/mL BSA, 800 cpm (Cherenkov’s counting) of [^32P]-miRNA, 1 µM unlabeled miRNA, 20 µM either DC or Dual oligonucleotide was incubated at 37 °C for 20 min then RNase H (5 or 100 U/mL) was added and the mixture was further incubated for 48 h. Aliquots were taken at 0, 1, 6, 24 and 48 h then the reaction was quenched, RNA cleavage products were collected and analyzed as described above.", "data": [{"substance": "TCAACATC–linker 1–[GRLRL]2–linker 2–GATAAGCTA [miRNA-21-DC, Dual oligonucleotide-peptide conjugate targeted to miR-21: catalytic peptide [LRLRG]2 between two 2-aminoadenine-containing oligodeoxyribonucleotides]", "values": [{"measurement": "increase in rate of cleavage by DC in the presence of RNase H", "setting": "RNase H 5 u/mL, versus DC alone", "result": 4, "unit": "fold"}, {"measurement": "total extent of cleavage by DC and RNase H", "setting": "RNase H 5 u/mL, miRNA 1 µM, DC 20 µM, buffer (2), 37 °C", "result": 40, "unit": "%"}, {"measurement": "increase in rate of cleavage compared with DC alone", "setting": "RNase H 100 u/mL", "result": 20, "unit": "fold"}, {"measurement": "cleavage by DC and RNase H", "setting": "RNase H 100 u/mL, completed in the first hour of incubation", "result": 100, "unit": "%"}]}]}
